Tested on: AKT
Assay: Western blot of AKT protein levels and downstream signaling in BT474 cells
Type: cell-based, human
Conditions: Western blot (FIGS. 1, 3, 4)
Protocol: PC-3, U87MG, HCC1143, MDA-MB-231, MDA-MB-468, BT474 and MCF-7 cell lines were purchased from ATCC. Cell lines were regularly tested in the lab for mycoplasma. All cells were cultured at 37° C. and 5% CO2. PC-3, U87MG, MDA-MB-231, MCF-7 and BT474 cells were cultured in 1×DMEM (Corning, 10-013-CV) with 10% fetal bovine serum (Atlanta Biologicals S11150) and 1× Penicillin/Streptomycin. HCC1143 cells were cultured in RPMI (Corning, 10-040-CV) medium with 10% fetal bovine serum (Atlanta Biologicals S11150) and 1× Penicillin/Streptomycin. Cells were split using 0.05% or 0.25% trypsin (Corning 25-051-Cl or 25-053-Cl, respectively) before they reached full confluence and media was changed every 3-4 days. Cells were treated with compounds individually at different concentrations for 24 hrs. Cells were treated with DMSO, VHL, or PML alone as controls.
Cells were lysed in 2× sample buffer (125 mM Tris-HCl at pH 6.8, 10% βME, 2% SDS, 20% glycerol, 0.05% Bromophenol Blue, 8 M urea). Protein lysates were loaded into 4-12% Bis-Tris gels and resolved by electrophoresis. Samples were then blotted on PVDF membrane (Millipore IPVH00010) using the wet transfer technique (Invitrogen). Membranes were blocked in 5% milk-TBST for 1 hour, washed in TBST for 10 min, and incubated in primary antibody in 5% milk-TBST or 5% BSA-TBST at 4° C. for 16 h. Membranes were rinsed (3×6 min) in TBST and incubated in horseradish peroxidase-conjugated secondary antibodies in 5% milk-TBST for 1 hour and rinsed again in TBST (3×6 min). Membranes were visualized using the chemiluminescence system (Thermo 34080, 37075) on autoradiography film (Denville E3018). Primary Antibodies: R-actin (Sigma A5316), p-AKT (Ser473 CST-9721), total AKT (CST-9272), p-S6 (Ser240/244, CST-5364), p-PRAS40 (Thr246, CST-2997). Secondary Antibodies: Mouse (Thermo 31432), Rabbit (Thermo 31460).

SMILES | suppression of AKT protein level and AKT activity
NC1(C(=O)N[C@@H](CCN2CCN(C(=O)CCOCCOCCOCCOCCOCCOc3cccc4c3C(=O)N(C3CCC(=O)NC3=O)C4=O)CC2)c2ccc(Cl)cc2)CCN(c2ncnc3[nH]ccc23)CC1 (stereo partly drawn) [XF056-37, 4-amino-N-((1S)-1-(4-chlorophenyl)-3-(4-(1-((2-(2,6-dioxopiperidin-3-yl)-1,3-dioxoisoindolin-4-yl)oxy)-3,6,9,12,15-pentaoxaoctadecan-18-oyl)piperazin-1-yl)propyl)-1-(7H-pyrrolo[2,3-d]pyrimidin-4-yl)piperidine-4-carboxamide] | effective in suppressing both AKT protein level and AKT activity
C[C@@H]1C[C@@H](O)c2ncnc(N3CCN(C(=O)[C@H](CNCCNC(=O)CCOCCOCCOCCNc4cccc5c4C(=O)N(C4CCC(=O)NC4=O)C5=O)c4ccc(Cl)cc4)CC3)c21 (stereo partly drawn) [XF048-2, N-(2-(((S)-2-(4-chlorophenyl)-3-(4-((5R,7R)-7-hydroxy-5-methyl-6,7-dihydro-5H-cyclopenta[d]pyrimidin-4-yl)piperazin-1-yl)-3-oxopropyl)amino)ethyl)-3-(2-(2-(2-((2-(2,6-dioxopiperidin-3-yl)-1,3-dioxoisoindolin-4-yl)amino)ethoxy)ethoxy)ethoxy)propanamide] | effective in suppressing both AKT protein level and AKT activity
C[C@@H]1C[C@@H](O)c2ncnc(N3CCN(C(=O)[C@H](CNCCC(=O)NCCCCCCCCCc4cccc5c4C(=O)N(C4CCC(=O)NC4=O)C5=O)c4ccc(Cl)cc4)CC3)c21 (stereo partly drawn) [XF056-93, 3-(((S)-2-(4-chlorophenyl)-3-(4-((5R,7R)-7-hydroxy-5-methyl-6,7-dihydro-5H-cyclopenta[d]pyrimidin-4-yl)piperazin-1-yl)-3-oxopropyl)amino)-N-(9-(2-(2,6-dioxopiperidin-3-yl)-1,3-dioxoisoindolin-4-yl)nonyl)propanamide] | effective in suppressing both AKT protein level and AKT activity
Cc1ncsc1-c1ccc(CNC(=O)[C@@H]2C[C@@H](O)CN2C(=O)[C@@H](NC(=O)CCCCCCCCCCCCC(=O)N2CCN(CC[C@H](NC(=O)C3(N)CCN(c4ncnc5[nH]ccc45)CC3)c3ccc(Cl)cc3)CC2)C(C)(C)C)cc1 [XF050-145, 4-amino-N-((S)-1-(4-chlorophenyl)-3-(4-(14-(((S)-1-((2S,4R)-4-hydroxy-2-((4-(4-methylthiazol-5-yl)benzyl)carbamoyl)pyrrolidin-1-yl)-3,3-dimethyl-1-oxobutan-2-yl)amino)-14-oxotetradecanoyl)piperazin-1-yl)propyl)-1-(7H-pyrrolo[2,3-d]pyrimidin-4-yl)piperidine-4-carboxamide] | effective in suppressing both AKT protein level and AKT activity
Cc1ncsc1-c1ccc(CNC(=O)[C@@H]2C[C@@H](O)CN2C(=O)[C@@H](NC(=O)COCC(=O)N2CCN(CC[C@H](NC(=O)C3(N)CCN(c4ncnc5[nH]ccc45)CC3)c3ccc(Cl)cc3)CC2)C(C)(C)C)cc1 [XF050-5, 4-amino-N-((S)-1-(4-chlorophenyl)-3-(4-(2-(2-(((S)-1-((2S,4R)-4-hydroxy-2-((4-(4-methylthiazol-5-yl)benzyl)carbamoyl)pyrrolidin-1-yl)-3,3-dimethyl-1-oxobutan-2-yl)amino)-2-oxoethoxy)acetyl)piperazin-1-yl)propyl)-1-(7H-pyrrolo[2,3-d]pyrimidin-4-yl)piperidine-4-carboxamide] | effective in suppressing both AKT protein level and AKT activity
C[C@@H]1C[C@@H](O)c2ncnc(N3CCN(C(=O)[C@H](CNCCC(=O)NCCCCCCCNc4cccc5c4C(=O)N(C4CCC(=O)NC4=O)C5=O)c4ccc(Cl)cc4)CC3)c21 (stereo partly drawn) [XF048-5, 3-(((S)-2-(4-chlorophenyl)-3-(4-((5R,7R)-7-hydroxy-5-methyl-6,7-dihydro-5H-cyclopenta[d]pyrimidin-4-yl)piperazin-1-yl)-3-oxopropyl)amino)-N-(7-((2-(2,6-dioxopiperidin-3-yl)-1,3-dioxoisoindolin-4-yl)amino)heptyl)propanamide] | effective in suppressing both AKT protein level and AKT activity
C[C@@H]1C[C@@H](O)c2ncnc(N3CCN(C(=O)[C@H](CNCCC(=O)NCCOCCOCCOCCOCCOCCNc4cccc5c4C(=O)N(C4CCC(=O)NC4=O)C5=O)c4ccc(Cl)cc4)CC3)c21 (stereo partly drawn) [XF038-177A, 3-(((S)-2-(4-chlorophenyl)-3-(4-((5R,7R)-7-hydroxy-5-methyl-6,7-dihydro-5H-cyclopenta[d]pyrimidin-4-yl)piperazin-1-yl)-3-oxopropyl)amino)-N-(17-((2-(2,6-dioxopiperidin-3-yl)-1,3-dioxoisoindolin-4-yl)amino)-3,6,9,12,15-pentaoxaheptadecyl) propanamide] | effective in suppressing both AKT protein level and AKT activity
Cc1ncsc1-c1ccc(CNC(=O)[C@@H]2C[C@@H](O)CN2C(=O)[C@@H](NC(=O)CCCCCCCCCCCC(=O)N2CCN(CC[C@H](NC(=O)C3(N)CCN(c4ncnc5[nH]ccc45)CC3)c3ccc(Cl)cc3)CC2)C(C)(C)C)cc1 [XF050-144, 4-amino-N-((S)-1-(4-chlorophenyl)-3-(4-(13-(((S)-1-((2S,4R)-4-hydroxy-2-((4-(4-methylthiazol-5-yl)benzyl)carbamoyl)pyrrolidin-1-yl)-3,3-dimethyl-1-oxobutan-2-yl)amino)-13-oxotridecanoyl)piperazin-1-yl)propyl)-1-(7H-pyrrolo[2,3-d]pyrimidin-4-yl)piperidine-4-carboxamide] | effective in suppressing both AKT protein level and AKT activity
C[C@@H]1C[C@@H](O)c2ncnc(N3CCN(C(=O)[C@H](CNCCC(=O)NCCCCCCNc4cccc5c4C(=O)N(C4CCC(=O)NC4=O)C5=O)c4ccc(Cl)cc4)CC3)c21 (stereo partly drawn) [XF042-168, 3-(((S)-2-(4-chlorophenyl)-3-(4-((5R,7R)-7-hydroxy-5-methyl-6,7-dihydro-5H-cyclopenta[d]pyrimidin-4-yl)piperazin-1-yl)-3-oxopropyl)amino)-N-(6-((2-(2,6-dioxopiperidin-3-yl)-1,3-dioxoisoindolin-4-yl)amino)hexyl)propanamide] | effective in suppressing both AKT protein level and AKT activity
Cc1ncsc1-c1ccc(CNC(=O)[C@@H]2C[C@@H](O)CN2C(=O)[C@@H](NC(=O)CCCCCCCC(=O)N2CCN(CC[C@H](NC(=O)C3(N)CCN(c4ncnc5[nH]ccc45)CC3)c3ccc(Cl)cc3)CC2)C(C)(C)C)cc1 [XF050-19, 4-amino-N-((S)-1-(4-chlorophenyl)-3-(4-(9-(((S)-1-((2S,4R)-4-hydroxy-2-((4-(4-methylthiazol-5-yl)benzyl)carbamoyl)pyrrolidin-1-yl)-3,3-dimethyl-1-oxobutan-2-yl)amino)-9-oxononanoyl)piperazin-1-yl)propyl)-1-(7H-pyrrolo[2,3-d]pyrimidin-4-yl)piperidine-4-carboxamide] | effective in suppressing both AKT protein level and AKT activity
C[C@@H]1C[C@@H](O)c2ncnc(N3CCN(C(=O)[C@H](CNCCNC(=O)CCOCCOCCOCCOCCNc4cccc5c4C(=O)N(C4CCC(=O)NC4=O)C5=O)c4ccc(Cl)cc4)CC3)c21 (stereo partly drawn) [XF048-3, N-(2-(((S)-2-(4-chlorophenyl)-3-(4-((5R,7R)-7-hydroxy-5-methyl-6,7-dihydro-5H-cyclopenta[d]pyrimidin-4-yl)piperazin-1-yl)-3-oxopropyl)amino)ethyl)-1-((2-(2,6-dioxopiperidin-3-yl)-1,3-dioxoisoindolin-4-yl)amino)-3,6,9,12-tetraoxapentadecan-15-amide] | effective in suppressing both AKT protein level and AKT activity
Cc1ncsc1-c1ccc(CNC(=O)[C@@H]2C[C@@H](O)CN2C(=O)[C@@H](NC(=O)CCCCCCCCCNC(=O)CCNC[C@@H](C(=O)N2CCN(c3ncnc4c3[C@H](C)C[C@H]4O)CC2)c2ccc(Cl)cc2)C(C)(C)C)cc1 [XF038-165A, (2S,4R)-1-((S)-2-(10-(3-(((S)-2-(4-chlorophenyl)-3-(4-((5R,7R)-7-hydroxy-5-methyl-6,7-dihydro-5H-cyclopenta[d]pyrimidin-4-yl)piperazin-1-yl)-3-oxopropyl)amino)propanamido)decanamido)-3,3-dimethylbutanoyl)-4-hydroxy-N-(4-(4-methylthiazol-5-yl)benzyl)pyrrolidine-2-carboxamide] | effective in suppressing both AKT protein level and AKT activity

Reference: patent publication US11472799B2, “Serine threonine kinase (AKT) degradation / disruption compounds and methods of use” (Icahn School of Medicine at Mount Sinai, priority 2018, dated 2022)
